Measurements from PMC9728921, “Characterization of a KDM5 small molecule inhibitor with antiviral activity against hepatitis B virus” (PLOS ONE, 2022).

Key:
[1] = Cell-associated GS-080 exposure and half-life in PHH (LC-MS); assay type: in vitro ADME, human
Experimental: PHH were infected with HBV for three days prior to initiation of GS-5801 treatment. PHH were dosed with vehicle or 1 µM GS-5801once for three days (three day exposure; continuous dosing) or once for two hours (two hour exposure; pulse dosing). […] (C) Pharmacokinetic parameters calculated included the half-life (t1/2), maximum concentration (Cmax), and area under the curve (AUClast).

[2] = biological target: T1, G9a (Homo sapiens, UniProt Q96KQ7); experiment: Histone methyltransferase enzymatic assay, G9a; assay type: biochemical; settings: enzyme conc. 100 nM
T1 construct: 786-1210; purchased RBC (read as Reaction Biology Corporation, named)
T1 sequence (Q96KQ7 786-1210): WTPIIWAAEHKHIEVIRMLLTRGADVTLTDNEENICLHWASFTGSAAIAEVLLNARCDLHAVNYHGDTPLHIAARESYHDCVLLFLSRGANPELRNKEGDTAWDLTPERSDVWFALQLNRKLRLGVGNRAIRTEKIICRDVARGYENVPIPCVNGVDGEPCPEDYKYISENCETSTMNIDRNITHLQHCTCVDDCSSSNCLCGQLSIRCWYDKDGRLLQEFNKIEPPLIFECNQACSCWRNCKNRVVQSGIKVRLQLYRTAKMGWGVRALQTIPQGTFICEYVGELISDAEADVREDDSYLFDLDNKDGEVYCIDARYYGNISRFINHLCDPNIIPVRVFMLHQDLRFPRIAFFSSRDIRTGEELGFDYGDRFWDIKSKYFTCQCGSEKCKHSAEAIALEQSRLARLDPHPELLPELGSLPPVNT
Experimental: (§1) Histone methyltransferase assays were performed in 96-well half-area optiplates (PerkinElmer) at room temperature. All concentrations are final unless noted otherwise. Compounds were serially diluted in DMSO and the final DMSO concentration was 1%. A 24 μL reaction mixture contained compound, enzyme, 200 nM of nucleosome or histone substrate, 400 nM ^3H-SAM (83.1 Ci/mmol), 50 mM Tris-HCl (pH 8.0), 50 mM NaCl, 5 mM MgCl2, 1 mM DTT, and 0.01% Tween-20. The plate was sealed, mixed on a Titramax plate shaker at 1200 rpm for 30 sec, and incubated at room temperature for 60 min. The reaction was quenched by addition of 24 μL mixture containing 5 mg/mL PVT-PEI beads and 300 μM unlabeled SAM in water. The plate was sealed, mixed as previously noted, incubated overnight, and read on a TopCount plate reader (PerkinElmer).
(§2) Data was analyzed using GraphPad Prism 6.0 (La Jolla, CA). […] IC50 values were calculated as an average of at least two independent experiments.

[3] = Liver to plasma AUC ratio, cynomolgus monkey; assay type: in vivo, cynomolgus monkeys; settings: male, liver and plasma, po, 2.5 mg/kg, read-out: GS-080 liver to plasma AUC ratio
Experimental: Rats and monkeys were dosed by oral gavage once with 1 mg/kg or 2.5 mg/kg, respectively. The rat study included a vehicle control group (water). Serial venous blood samples were taken at 0, 0.25, 0.5, 1, 2, 4, 6, 8, 12, and 24 hours post dose from each animal and collected into vacutainer tubes containing potassium oxalate/sodium fluoride (Thermo Fisher; BD367925) as the anti-coagulant and blood was centrifuged for plasma isolation. […] For monkey, liver samples were taken by biopsy at pre-dose, 1, 4, 24, 48, and 72 hours post dose (n = 2 per time point). Rat and monkey livers were weighed and immediately flash frozen in liquid nitrogen.
500 μL of cold HPLC grade water was added to each monkey liver biopsy sample and rat liver samples were diluted 3-fold with cold HPLC grade water. Diluted liver samples were homogenized between 1 and 3 minutes. 50 μL of plasma samples and homogenized liver samples were quenched with 200 μL of 0.05% formic acid in acetonitrile. […] An Agilent 1200 series binary pump (Santa Clara, CA; G1312A) was used for elution and separation of compounds with a Hypersil Gold C18 HPLC column (Thermo Fisher; 50 x 3.0 mm, 5 μm) over 6.75 minutes with 99–3% gradient of Mobile Phase A (1% acetonitrile in 2.5 mM ammonium formate aqueous solution pH 2.6) and 1–97% gradient Mobile Phase B (90% acetonitrile in aqueous 10 mM ammonium formate pH 6.8).

[4] = biological target: T2, NSD2 (Homo sapiens, UniProt O96028); experiment: Histone methyltransferase enzymatic assay, NSD2; assay type: biochemical; settings: enzyme conc. 10 nM
T2 construct: Full Length; purchased RBC (read as Reaction Biology Corporation, named)
T2 sequence (O96028 whole entry): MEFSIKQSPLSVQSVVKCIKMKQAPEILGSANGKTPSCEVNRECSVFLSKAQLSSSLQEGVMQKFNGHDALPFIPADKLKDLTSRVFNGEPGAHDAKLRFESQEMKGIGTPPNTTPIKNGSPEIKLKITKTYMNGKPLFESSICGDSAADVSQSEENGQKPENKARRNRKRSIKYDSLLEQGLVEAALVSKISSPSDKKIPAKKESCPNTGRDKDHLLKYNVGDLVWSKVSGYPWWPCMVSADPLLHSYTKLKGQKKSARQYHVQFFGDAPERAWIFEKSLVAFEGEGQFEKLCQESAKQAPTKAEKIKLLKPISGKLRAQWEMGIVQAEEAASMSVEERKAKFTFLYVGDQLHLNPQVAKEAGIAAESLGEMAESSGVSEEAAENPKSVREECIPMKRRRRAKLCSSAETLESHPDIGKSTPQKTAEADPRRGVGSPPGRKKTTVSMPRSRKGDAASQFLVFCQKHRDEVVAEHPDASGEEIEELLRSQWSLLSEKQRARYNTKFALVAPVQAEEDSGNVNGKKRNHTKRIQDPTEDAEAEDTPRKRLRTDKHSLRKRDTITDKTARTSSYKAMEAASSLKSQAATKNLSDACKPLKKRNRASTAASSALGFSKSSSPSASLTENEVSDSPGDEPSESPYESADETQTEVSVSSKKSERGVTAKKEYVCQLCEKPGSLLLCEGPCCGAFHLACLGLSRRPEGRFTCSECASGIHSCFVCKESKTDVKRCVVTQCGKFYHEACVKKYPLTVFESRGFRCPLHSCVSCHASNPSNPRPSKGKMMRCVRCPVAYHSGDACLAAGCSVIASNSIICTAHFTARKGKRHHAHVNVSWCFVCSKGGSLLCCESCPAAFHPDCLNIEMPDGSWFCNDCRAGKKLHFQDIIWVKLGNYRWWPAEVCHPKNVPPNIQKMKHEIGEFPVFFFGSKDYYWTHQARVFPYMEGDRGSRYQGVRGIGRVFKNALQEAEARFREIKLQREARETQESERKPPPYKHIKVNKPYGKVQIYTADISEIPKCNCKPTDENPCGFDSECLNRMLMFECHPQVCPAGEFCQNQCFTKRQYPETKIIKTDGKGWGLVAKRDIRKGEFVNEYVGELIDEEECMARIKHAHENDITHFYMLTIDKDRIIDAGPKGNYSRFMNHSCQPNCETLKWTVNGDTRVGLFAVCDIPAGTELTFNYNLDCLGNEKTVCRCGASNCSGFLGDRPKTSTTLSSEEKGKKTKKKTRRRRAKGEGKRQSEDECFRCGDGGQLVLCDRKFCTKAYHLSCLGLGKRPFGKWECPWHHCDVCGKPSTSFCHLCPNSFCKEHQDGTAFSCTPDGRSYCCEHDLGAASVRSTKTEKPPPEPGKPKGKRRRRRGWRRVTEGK
Experimental: as §1, §2

[5] = biological target: KDM3B (Homo sapiens, UniProt Q7LBC6); experiment: KDM3B enzymatic assay (AlphaLISA); assay type: biochemical
Sequence of KDM3B (Q7LBC6 whole entry): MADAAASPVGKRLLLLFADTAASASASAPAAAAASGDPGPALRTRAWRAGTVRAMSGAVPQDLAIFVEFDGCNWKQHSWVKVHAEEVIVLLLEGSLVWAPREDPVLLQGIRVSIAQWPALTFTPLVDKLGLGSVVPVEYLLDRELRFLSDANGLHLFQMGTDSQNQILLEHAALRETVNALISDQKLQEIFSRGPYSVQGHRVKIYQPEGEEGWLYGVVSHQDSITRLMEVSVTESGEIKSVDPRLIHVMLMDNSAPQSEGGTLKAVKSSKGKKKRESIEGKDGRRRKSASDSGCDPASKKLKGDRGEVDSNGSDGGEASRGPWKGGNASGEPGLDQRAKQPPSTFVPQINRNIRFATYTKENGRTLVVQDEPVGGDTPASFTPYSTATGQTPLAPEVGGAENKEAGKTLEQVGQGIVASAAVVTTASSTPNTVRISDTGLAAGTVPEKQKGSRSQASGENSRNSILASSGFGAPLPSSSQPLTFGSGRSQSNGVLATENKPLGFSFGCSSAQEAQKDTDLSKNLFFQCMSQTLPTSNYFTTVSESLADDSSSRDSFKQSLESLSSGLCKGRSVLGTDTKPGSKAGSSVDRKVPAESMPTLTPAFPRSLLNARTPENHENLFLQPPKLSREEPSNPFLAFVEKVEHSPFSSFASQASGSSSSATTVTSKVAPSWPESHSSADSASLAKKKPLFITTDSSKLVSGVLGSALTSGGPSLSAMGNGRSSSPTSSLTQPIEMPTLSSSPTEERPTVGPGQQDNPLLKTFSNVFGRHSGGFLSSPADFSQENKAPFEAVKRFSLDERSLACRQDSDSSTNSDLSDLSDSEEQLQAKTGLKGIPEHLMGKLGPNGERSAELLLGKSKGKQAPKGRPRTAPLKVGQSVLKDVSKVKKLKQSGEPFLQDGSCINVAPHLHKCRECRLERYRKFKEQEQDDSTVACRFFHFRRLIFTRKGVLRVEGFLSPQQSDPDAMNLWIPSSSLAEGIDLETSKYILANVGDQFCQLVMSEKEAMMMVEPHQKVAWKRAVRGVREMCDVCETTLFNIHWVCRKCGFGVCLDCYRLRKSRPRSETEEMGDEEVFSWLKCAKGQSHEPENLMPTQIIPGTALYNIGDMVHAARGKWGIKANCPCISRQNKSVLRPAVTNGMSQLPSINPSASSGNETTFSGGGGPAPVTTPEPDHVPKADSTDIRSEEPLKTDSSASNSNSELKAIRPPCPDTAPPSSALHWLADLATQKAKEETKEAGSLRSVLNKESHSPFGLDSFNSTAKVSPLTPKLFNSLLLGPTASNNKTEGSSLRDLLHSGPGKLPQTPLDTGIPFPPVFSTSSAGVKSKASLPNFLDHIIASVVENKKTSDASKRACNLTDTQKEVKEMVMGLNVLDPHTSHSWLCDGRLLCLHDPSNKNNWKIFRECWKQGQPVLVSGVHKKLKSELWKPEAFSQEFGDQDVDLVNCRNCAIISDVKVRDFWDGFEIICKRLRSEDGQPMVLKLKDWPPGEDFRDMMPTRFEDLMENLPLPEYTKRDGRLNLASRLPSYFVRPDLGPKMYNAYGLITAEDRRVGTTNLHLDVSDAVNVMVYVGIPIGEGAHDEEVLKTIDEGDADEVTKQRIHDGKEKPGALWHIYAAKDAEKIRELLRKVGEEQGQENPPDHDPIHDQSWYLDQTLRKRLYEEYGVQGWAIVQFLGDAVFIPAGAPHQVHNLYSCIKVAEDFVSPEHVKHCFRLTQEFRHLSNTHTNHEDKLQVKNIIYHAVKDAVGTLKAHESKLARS
Experimental: The following assay protocol was used for all histone demethylases tested except KDM1A, KDM5A, B, and D, which are described below. Compounds were serially diluted into a 384-well Alpha plate as a DMSO solution and mixed with 5 μL reaction buffer (buffer A) containing 50 mM HEPES (pH 7.0), 0.1% BSA, and 0.003% Tween-20. The enzyme of interest was pre-incubated with 15 μM of Fe^2+ for 10 min (except 30 min for KDM2B) in reaction buffer A. 5 μL of the enzyme mixture was added to each of the compound-containing wells and incubated for 10 min. The reaction was started by addition of a 5 μL mixture containing 300 nM peptide substrate, 75 μM L-ascorbic acid, and 30 μM α-ketoglutarate in buffer A. This final 15 μL of reaction mixture was incubated for 20 min for KDM5B and 1 hour for the other KDM enzymes. The reaction was quenched with 10 μL of diluted AlphaLISA Acceptor beads (1:400) in Epigenetics Buffer and incubated for 60 min. The Donor beads were diluted 1:400 into Epigenetics Buffer in the dark and 10 μL of this was added to each well and incubated for another 60 min in the dark. The assay plates were read on an Enspire plate reader (PerkinElmer) using a standard AlphaLISA program.
as §2

[6] = system: host and viral transcriptomes in PHH; experiment: RNA-seq of HBV-infected PHH; assay type: cell-based, human; settings: 0.03, 0.3, or 10 μM; days 1, 3, 10, 13
Experimental: (D) Hallmark Gene Set. […] For comparison, downregulation of HBV mRNA for same dose and time regiment is shown at the top.
Library building and sequencing for RNA-seq of PHH and rat liver was performed on all samples at EA Genomics/Q2 Solutions (Morrisville, NC). Approximately 100 mg of rat liver tissue from the left later lobe was flash frozen immediately after collection. PHH were lysed into RLT buffer (Qiagen; 79216) and immediately frozen. Liver/PHH samples were homogenized in QIAzol Lysis Reagent (79306) and after addition of chloroform the samples were separated into aqueous and organic phases by centrifugation. Ethanol was added to the upper aqueous phase and the sample was applied to an RNeasy Mini spin column (74104) for purification and RNA eluted with water. Libraries were prepared using the Illumina TruSeq stranded mRNA sample preparation kit according to the manufacturer’s protocol (Illumina, Inc., Hayward, CA; RS-122-2103). Approximately 30 million 2 x 50 bp paired-end reads were collected per sample using the Illumina HiSeq2000 sequencing platform. Sequencing reads were aligned to the human, rat, or HBV genomes by STAR [49]. The Bioconductor packages edgeR [50] and limma were used to normalize sequence count data (counts per million; cpm) and conduct differential gene expression analysis. The false discovery rate (FDR) was calculated using the Benjamini-Hochberg method.

Row | SMILES | cell-associated GS-080 Cmax and AUClast, pulse compared to continuous dosing ([1]; PHH dosed with 1 µM GS-5801, two-hour pulse vs three day exposure) | half-life at 1 µM ([1]; human, primary human hepatocytes (PHH), cell-associated, PHH, 1 uM, uninfected PHH) [h] | IC50 [2] [µM] | Kp [3] | IC50 [4] [µM] | Fold Selectivity Compared to KDM5A ([5]; IC50 of KDM3B over KDM5A) | IC50 ([5]; enzyme concentration 0.1 nM) [µM] | levels of HBV mRNA as measured by RNA-seq [6]
1 | CCN(CCN(C)C)C(=O)CNCc1cc(C(=O)O)ccn1 [GS-080] | two-fold lower Cmax and AUClast values | 42 to 66 | > 100 | 176 | > 100 | > 27,800 fold | > 10 | 
2 | CCOC(=O)c1ccnc(CNCC(=O)N(CC)CCN(C)C)c1 [GS-5801] |  |  |  |  |  |  |  | decreased after GS-5801 treatment in a dose and time dependent manner
